Measurements published in patent US10294202B2, “Pyrrolidinones as herbicides” (FMC Corporation, priority 2013, dated 2019).

Key:
crabgrass, large = experiment: Test A pre-/postemergence herbicide test; assay type: in vivo, Digitaria sanguinalis
Method in brief: (§1)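 Greenhouse pot test with pre- and postemergence application of surfactant-containing solvent formulations. Postemergence plants were 2–10 cm, one- to two-leaf stage. Response scored visually after ~10 days, 0 (no effect) to 100 (complete control).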

giant foxtail = experiment: Test A pre-/postemergence herbicide test; assay type: in vivo, Setaria faberii
Method in brief: as §1

morningglory = experiment: Test A pre-/postemergence herbicide test; assay type: in vivo, Ipomoea spp.
Method in brief: as §1

pigweed = experiment: Test A pre-/postemergence herbicide test; assay type: in vivo, Amaranthus retroflexus
Method in brief: as §1

corn = experiment: Test A pre-/postemergence herbicide test; assay type: in vivo, Zea mays
Method in brief: as §1

rice = experiment: Test B flooded paddy test; assay type: in vivo, Oryza sativa; conditions: Flood, scale of 0 to 100 where 0 is no effect and 100 is complete control
Method in brief: (§2)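 Visual ratings from 0, meaning no effect, up to 100, meaning complete control, were made by comparison with untreated controls 13 to 15 days after treatment. Test compounds went straight into floodwater standing 3 cm over the soil of pots holding 2-leaf seedlings.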

wheat = experiment: Test A pre-/postemergence herbicide test; assay type: in vivo, Triticum aestivum
Method in brief: as §1

barnyardgrass [1] = experiment: Test A pre-/postemergence herbicide test; assay type: in vivo, Echinochloa crus-galli
Method in brief: as §1

ducksalad = experiment: Test B flooded paddy test; assay type: in vivo, Heteranthera limosa; conditions: Flood, scale of 0 to 100 where 0 is no effect and 100 is complete control
Method in brief: as §2

barnyardgrass [2] = experiment: Test B flooded paddy test; assay type: in vivo, Echinochloa crus-galli; conditions: Flood, scale of 0 to 100 where 0 is no effect and 100 is complete control
Method in brief: as §2

sedge, umbrella = experiment: Test B flooded paddy test; assay type: in vivo, Cyperus difformis; conditions: Flood, scale of 0 to 100 where 0 is no effect and 100 is complete control
Method in brief: as §2

velvetleaf = experiment: Test A pre-/postemergence herbicide test; assay type: in vivo, Abutilon theophrasti
Method in brief: as §1

[3] = Postemergence, 125 g ai/ha, 0 to 100 scale, 0 no effect, 100 complete control
[4] = Postemergence, 500 g ai/ha, 0 to 100 scale (0 no effect, 100 complete control)
[5] = Preemergence, 125 g ai/ha, visual rating on 0 to 100 scale (0 no effect, 100 complete control)
[6] = preemergence, 500 g ai/ha, 0 to 100 scale
[7] = preemergence, 500 g ai/ha, 0 to 100 scale (0 no effect, 100 complete control)
[8] = Postemergence, 1000 g ai/ha, 0 to 100 scale (0 no effect, 100 complete control)
[9] = Preemergence, 1000 g ai/ha, visual rating on 0 to 100 scale (0 no effect, 100 complete control), approx. 10 days
[10] = 125 g ai/ha, visual rating, 0 to 100 scale, 0 no effect, 100 complete control, approximately 10 days, preemergence
[11] = Postemergence, 125 g ai/ha, 0 to 100 scale, 0 is no effect, 100 is complete control
[12] = preemergence, 500 g ai/ha, 0 to 100 scale, 0 is no effect and 100 is complete control

O=C1NCC(c2ccc(F)c(F)c2)C1C(=O)Nc1cccc[n+]1[O-] (stereo not drawn) [Compound 47]
0: Plant response rating, Crabgrass, Large (crabgrass, large; [3]) | Plant response rating, Crabgrass, Large (crabgrass, large; [4]) | Plant response rating, Foxtail, Giant (giant foxtail; [3]) | Plant response rating, Foxtail, Giant (giant foxtail; [4]) | Foxtail, Giant plant response rating (giant foxtail; [5]) | Plant response rating, Foxtail, Giant (giant foxtail; [6]) | Plant response rating, Morningglory (morningglory; [3]) | Morningglory plant response rating (morningglory; [5]) | Plant response rating, Morningglory (morningglory; [6]) | Plant response rating, Pigweed (pigweed; [3]) | Plant response rating, Pigweed (pigweed; [4]) | Pigweed plant response rating (pigweed; [5]) | Plant response rating, Pigweed (pigweed; [6]) | Corn plant response rating (corn; [5]) | Plant response rating, Corn (corn; [6]) | Plant response rating, Rice (rice; 250 g ai/ha) | Plant response rating, Wheat (wheat; [3]) | Plant response rating, Wheat (wheat; [4]) | Wheat plant response rating (wheat; [5]) | Plant response rating, Wheat (wheat; [6]) | Plant response rating, Barnyardgrass (barnyardgrass [1]; [3]) | Plant response rating, Barnyardgrass (barnyardgrass [1]; [4]) | Barnyardgrass plant response rating (barnyardgrass [1]; [5]) | Plant response rating, Barnyardgrass (barnyardgrass [1]; [7]) | Plant response rating, Ducksalad (ducksalad; 250 g ai/ha) | Plant response rating, Barnyardgrass (barnyardgrass [2]; 250 g ai/ha) | Plant response rating, Sedge, Umbrella (sedge, umbrella; 250 g ai/ha) | Plant response rating, Velvetleaf (velvetleaf; [3]) | Plant response rating, Velvetleaf (velvetleaf; [4]) | Velvetleaf plant response rating (velvetleaf; [5]) | Plant response rating, Velvetleaf (velvetleaf; [6])
60: Plant response rating, Crabgrass, Large (crabgrass, large; [6])
20: Plant response rating, Morningglory (morningglory; [4])
10: Crabgrass, Large plant response rating (crabgrass, large; [5])

Cc1ccccc1NC(=O)C1C(=O)NCC1c1ccc(Cl)c(Cl)c1 (stereo not drawn) [Compound 40]
90: Plant response rating, Crabgrass, Large (crabgrass, large; [8]) | Plant response rating, Crabgrass, Large (crabgrass, large; [9]) | Plant response rating, Foxtail, Giant (giant foxtail; [8]) | Plant response rating, Foxtail, Giant (giant foxtail; [9]) | Plant response rating, Barnyardgrass (barnyardgrass [1]; [9])
0: Plant response rating, Morningglory (morningglory; [9]) | Plant response rating, Pigweed (pigweed; [8]) | Plant response rating, Pigweed (pigweed; [9]) | Plant response rating, Rice (rice; 250 g ai/ha) | Plant response rating, Ducksalad (ducksalad; 250 g ai/ha) | Plant response rating, Barnyardgrass (barnyardgrass [2]; 250 g ai/ha) | Plant response rating, Sedge, Umbrella (sedge, umbrella; 250 g ai/ha) | Plant response rating, Velvetleaf (velvetleaf; [8]) | Plant response rating, Velvetleaf (velvetleaf; [9])
10: Plant response rating, Morningglory (morningglory; [8])
30: Plant response rating, Corn (corn; [9])
80: Plant response rating, Barnyardgrass (barnyardgrass [1]; [8])
20: Plant response rating, Corn (corn; [8]) | Plant response rating, Wheat (wheat; [8]) | Plant response rating, Wheat (wheat; [9])

O=C1NCC(c2ccccc2)C1C(=O)Nc1ccccc1Cl (racemic) [Compound 83]
60: Plant response rating, Barnyardgrass (barnyardgrass [1]; [4])
70: Plant response rating, Crabgrass, Large (crabgrass, large; [4]) | Crabgrass, Large plant response rating (crabgrass, large; [5]) | Plant response rating, Foxtail, Giant (giant foxtail; [6])
0: Plant response rating, Foxtail, Giant (giant foxtail; [3]) | Foxtail, Giant plant response rating (giant foxtail; [5]) | Plant response rating, Morningglory (morningglory; [3]) | Plant response rating, Morningglory (morningglory; [4]) | Morningglory plant response rating (morningglory; [5]) | Plant response rating, Morningglory (morningglory; [6]) | Plant response rating, Pigweed (pigweed; [3]) | Plant response rating, Pigweed (pigweed; [4]) | Pigweed plant response rating (pigweed; [5]) | Plant response rating, Pigweed (pigweed; [6]) | Plant response rating, Corn (corn; [3]) | Plant response rating, Corn (corn; [4]) | Corn plant response rating (corn; [5]) | Plant response rating, Corn (corn; [6]) | Plant response rating, Rice (rice; 250 g ai/ha) | Plant response rating, Wheat (wheat; [3]) | Plant response rating, Wheat (wheat; [4]) | Wheat plant response rating (wheat; [5]) | Plant response rating, Wheat (wheat; [6]) | Barnyardgrass plant response rating (barnyardgrass [1]; [5]) | Plant response rating, Sedge, Umbrella (sedge, umbrella; 250 g ai/ha) | Plant response rating, Velvetleaf (velvetleaf; [3]) | Plant response rating, Velvetleaf (velvetleaf; [4]) | Velvetleaf plant response rating (velvetleaf; [5]) | Plant response rating, Velvetleaf (velvetleaf; [6])
90: Plant response rating, Crabgrass, Large (crabgrass, large; [6])
30: Plant response rating, Barnyardgrass (barnyardgrass [2]; 250 g ai/ha)
20: Plant response rating, Crabgrass, Large (crabgrass, large; [3])
50: Plant response rating, Foxtail, Giant (giant foxtail; [4]) | Plant response rating, Barnyardgrass (barnyardgrass [1]; [7]) | Plant response rating, Ducksalad (ducksalad; 250 g ai/ha)

O=C1NCC(c2cc(F)c(F)c(F)c2)C1C(=O)Nc1cccc([N+](=O)[O-])c1 (stereo not drawn) [Compound 49]
90: Plant response rating, Crabgrass, Large (crabgrass, large; [6])
0: Plant response rating, Foxtail, Giant (giant foxtail; [3]) | Plant response rating, Morningglory (morningglory; [3]) | Plant response rating, Morningglory (morningglory; [4]) | Morningglory plant response rating (morningglory; [5]) | Plant response rating, Morningglory (morningglory; [6]) | Plant response rating, Pigweed (pigweed; [3]) | Plant response rating, Pigweed (pigweed; [4]) | Pigweed plant response rating (pigweed; [5]) | Plant response rating, Pigweed (pigweed; [6]) | Plant response rating, Corn (corn; [3]) | Plant response rating, Corn (corn; [4]) | Corn plant response rating (corn; [5]) | Plant response rating, Corn (corn; [6]) | Plant response rating, Rice (rice; 250 g ai/ha) | Plant response rating, Wheat (wheat; [3]) | Plant response rating, Wheat (wheat; [4]) | Wheat plant response rating (wheat; [5]) | Plant response rating, Wheat (wheat; [6]) | Plant response rating, Barnyardgrass (barnyardgrass [1]; [3]) | Barnyardgrass plant response rating (barnyardgrass [1]; [5]) | Plant response rating, Barnyardgrass (barnyardgrass [2]; 250 g ai/ha) | Plant response rating, Velvetleaf (velvetleaf; [3]) | Plant response rating, Velvetleaf (velvetleaf; [4]) | Velvetleaf plant response rating (velvetleaf; [5]) | Plant response rating, Velvetleaf (velvetleaf; [6])
40: Plant response rating, Foxtail, Giant (giant foxtail; [4]) | Plant response rating, Sedge, Umbrella (sedge, umbrella; 250 g ai/ha)
70: Plant response rating, Crabgrass, Large (crabgrass, large; [4]) | Crabgrass, Large plant response rating (crabgrass, large; [5]) | Plant response rating, Foxtail, Giant (giant foxtail; [6]) | Plant response rating, Ducksalad (ducksalad; 250 g ai/ha)
20: Plant response rating, Crabgrass, Large (crabgrass, large; [3]) | Foxtail, Giant plant response rating (giant foxtail; [5]) | Plant response rating, Barnyardgrass (barnyardgrass [1]; [4]) | Plant response rating, Barnyardgrass (barnyardgrass [1]; [7])

COc1cc(C2CNC(=O)C2C(=O)Nc2cccc(F)c2F)ccc1F (racemic) [Compound 195]
100: Plant response rating, Ducksalad (ducksalad; 1000 g ai/ha)
15: Plant response rating, Rice (rice; 1000 g ai/ha)
30: Plant response rating, Foxtail, Giant (giant foxtail; [11]) | Wheat plant response rating (0 to 100 scale, 0 is no effect, 100 is complete control) (wheat; Postemergence, 500 g ai/ha) | Plant response rating, Barnyardgrass (barnyardgrass [1]; [10]) | Plant response rating, Barnyardgrass (barnyardgrass [2]; 250 g ai/ha)
80: Plant response rating, Crabgrass, Large (crabgrass, large; [11]) | Crabgrass, Large plant response rating (0 to 100 scale, 0 is no effect, 100 is complete control) (crabgrass, large; Postemergence, 500 g ai/ha) | Plant response rating, Foxtail, Giant (giant foxtail; [10]) | Plant response rating, Barnyardgrass (barnyardgrass [1]; [11])
90: Plant response rating, Crabgrass, Large (crabgrass, large; [10]) | Plant response rating, Crabgrass, Large (crabgrass, large; [12]) | Plant response rating, Foxtail, Giant (giant foxtail; [12]) | Barnyardgrass plant response rating (0 to 100 scale, 0 is no effect, 100 is complete control) (barnyardgrass [1]; Postemergence, 500 g ai/ha) | Plant response rating, Barnyardgrass (barnyardgrass [1]; [12])
0: Plant response rating, Morningglory (morningglory; [10]) | Plant response rating, Morningglory (morningglory; [11]) | Morningglory plant response rating (0 to 100 scale, 0 is no effect, 100 is complete control) (morningglory; Postemergence, 500 g ai/ha) | Plant response rating, Morningglory (morningglory; [12]) | Plant response rating, Pigweed (pigweed; [10]) | Plant response rating, Pigweed (pigweed; [11]) | Pigweed plant response rating (0 to 100 scale, 0 is no effect, 100 is complete control) (pigweed; Postemergence, 500 g ai/ha) | Plant response rating, Pigweed (pigweed; [12]) | Plant response rating, Corn (corn; [10]) | Plant response rating, Corn (corn; [11]) | Corn plant response rating (0 to 100 scale, 0 is no effect, 100 is complete control) (corn; Postemergence, 500 g ai/ha) | Plant response rating, Corn (corn; [12]) | Plant response rating, Rice (rice; 250 g ai/ha) | Plant response rating, Wheat (wheat; [10]) | Plant response rating, Wheat (wheat; [11]) | Plant response rating, Wheat (wheat; [12]) | Plant response rating, Sedge, Umbrella (sedge, umbrella; 250 g ai/ha) | Plant response rating, Sedge, Umbrella (sedge, umbrella; 1000 g ai/ha) | Plant response rating, Velvetleaf (velvetleaf; [10]) | Plant response rating, Velvetleaf (velvetleaf; [11]) | Velvetleaf plant response rating (0 to 100 scale, 0 is no effect, 100 is complete control) (velvetleaf; Postemergence, 500 g ai/ha) | Plant response rating, Velvetleaf (velvetleaf; [12])
35: Plant response rating, Ducksalad (ducksalad; 250 g ai/ha)
70: Foxtail, Giant plant response rating (0 to 100 scale, 0 is no effect, 100 is complete control) (giant foxtail; Postemergence, 500 g ai/ha) | Plant response rating, Barnyardgrass (barnyardgrass [2]; 1000 g ai/ha)
